From patent US20240124488A1, “AZA-CRYPTOPHANES, PROCESSES FOR PREPARATION THEREOF, AND THEIR USES” (UNIVERSITE DE CAEN NORMANDIE, priority 2021, published 2024)
“And” between values parts separate entries of the source, which are not always exact repeats. Identical values can stand only once. Like-named read-outs stand apart in the source and are kept apart here. One block for each compound: values may come before it.

Columns and labels:
[1] = Cavity size by X-ray crystallography; type: physicochemical; settings: crystals by slow evaporation in dichloromethane at 4° C.
Method: Crystallographic data of both anti and syn cryptophanes 1N were obtained by slow evaporation in dichloromethane at 4° C. The anti compound has a cavity size of 137.0 Å^3 and the syn compound has a cavity size of 121.4 Å^3, both larger than the size of the prior art cryptophane C (114.5 Å^3).
Anti cryptophanes 1N crystals were also obtained by slow evaporation in anisole, which is too large to enter the cage. This enabled to visualise the conformation of the cryptophane 1N and the size of its cavity without caged compound. The size of the empty cavity is between 85.4 and 86.8 Å^3.

[2] = 129Xe NMR xenon encapsulation; type: binding; settings: 5 bars, CDCl3, 278 K
From the text: FIG. 1 illustrates the ^129Xe NMR spectrum (5 bars, CDCl3) of cryptophane-1N 12.
^129Xe NMR (5 bars, CDCl3): illustrated in FIG. 1.

[3] = Encapsulation efficiency by UV spectrophotometry; type: physicochemical
Method: Cryptophanes concentration were defined using spectrophotometry (Infinite M200, Tecan, Mannedorf, Switzerland) by determining absorbance spectrum of Crytophane in solution in MeOH.
The encapsulation efficiency (EE) was determined after filtration through 0.2 μm syringe filters (Minisart® Syringe Filter, Sartorius, Goettingen, Germany) to remove unentrapped cryptophanes. Then, these samples were diluted in methanol (1/100, v/v) and the concentration of cryptophane was determined by spectrophotometry at 288 nm. The EE was determined in duplicate and calculated as follows: […]
A UV calibration curve for each of the compounds was carried out (see protocol above) using a stock solution of Cr1N in acetonitrile (1.05 mg/mL) and a stock solution of cryptophane A in DMSO (1.85 mg/mL), solutions subsequently diluted in methanol.
The batch of nanoemulsions loaded with Cr1N was diluted 100-fold in methanol. Under these conditions, it was confirmed by DLS that the nanoemulsions were destroyed. The amount of cryptophane in this sample was then determined. The concentration of cryptophane in the sample was 28 μM, i.e. an encapsulation efficiency of 60%.

[4] = physchem; settings: organic solvent or mixture
[5] = Experimental solubility in organic solvents
[6] = prior art cryptophane; cited from earlier work

cavity size [1]: 121.4 Å^3
Compound: COc1cc2c3cc1OCCOc1ccc4c(c1)Cc1ccc5cc1Nc1ccc(cc1C4)OCCOc1cc(c(cc1OC)Cc1cc(c(OC)cc1C3)OCCO5)C2 [Cryptophane-1N Syn]

cavity size [1]: 137.0 Å^3
amount loaded into nanoemulsions relative to cryptophane A [3]: more than twice as much
solubility ([4]; Experimental solubility in CHCl3): > 8.27 mM
solubility ([4]; Experimental solubility in DMSO): > 59500 µg/mL and > 73800 µM
solubility ([4]; Experimental solubility in MeCN): > 2.23 mM
Compound: COc1cc2c3cc1OCCOc1ccc4c(c1)Cc1ccc5cc1Nc1ccc(cc1C4)OCCOc1cc(c(cc1OC)C3)Cc1cc(OC)c(cc1C2)OCCO5 [Cryptophane-1N]
Xenon encapsulation [2]: successfully encapsulate xenon

Experimental solubility in MeCN [5]: very poorly soluble
Compound: COc1cc2c3cc1OCCOc1cc4c(cc1OC)Cc1cc5c(OC)cc1Cc1cc(c(OC)cc1C4)OCCOc1cc(c(cc1OC)C3)Cc1cc(OC)c(cc1C2)OCCO5 [Cryptophane A]

Compound: cryptophane C
cavity size [6]: 114.5 Å^3
